This note sets out measurements from ChEMBL document CHEMBL5500380, “Recent discovery and development of AXL inhibitors as antitumor agents” (Eur J Med Chem, 2024).

In general, IC50 refers to the concentration that gives 50% inhibition. Read a low IC50 as greater potency. What is called inhibition is the change of the read-out against control, counted positive when it falls.

The target of assay [1] is T1, Tyrosine-protein kinase receptor UFO (Homo sapiens, UniProt P30530).
T1 sequence (P30530 whole entry): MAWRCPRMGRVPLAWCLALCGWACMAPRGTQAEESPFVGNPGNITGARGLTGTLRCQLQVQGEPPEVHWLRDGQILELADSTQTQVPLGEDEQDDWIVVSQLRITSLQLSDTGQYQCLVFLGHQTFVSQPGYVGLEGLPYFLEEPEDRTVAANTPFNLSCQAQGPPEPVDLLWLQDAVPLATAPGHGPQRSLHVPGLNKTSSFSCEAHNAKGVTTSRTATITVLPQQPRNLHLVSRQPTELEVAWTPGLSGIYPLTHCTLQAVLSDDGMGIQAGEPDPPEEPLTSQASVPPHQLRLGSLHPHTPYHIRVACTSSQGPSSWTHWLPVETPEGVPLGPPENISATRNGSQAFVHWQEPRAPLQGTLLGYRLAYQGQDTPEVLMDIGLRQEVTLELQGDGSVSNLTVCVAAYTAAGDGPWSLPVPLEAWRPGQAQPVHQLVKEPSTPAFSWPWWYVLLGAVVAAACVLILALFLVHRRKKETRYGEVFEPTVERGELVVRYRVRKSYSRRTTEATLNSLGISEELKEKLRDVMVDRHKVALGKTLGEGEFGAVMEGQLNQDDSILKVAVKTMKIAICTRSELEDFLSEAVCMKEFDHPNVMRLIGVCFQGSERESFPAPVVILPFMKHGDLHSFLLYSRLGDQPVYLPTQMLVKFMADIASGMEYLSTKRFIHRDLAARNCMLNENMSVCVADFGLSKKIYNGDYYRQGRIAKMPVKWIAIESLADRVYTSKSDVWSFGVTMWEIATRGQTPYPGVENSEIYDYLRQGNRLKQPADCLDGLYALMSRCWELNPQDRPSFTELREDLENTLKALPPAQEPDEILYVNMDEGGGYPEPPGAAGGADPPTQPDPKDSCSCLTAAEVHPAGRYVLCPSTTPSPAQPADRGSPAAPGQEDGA
The assay is described as follows: Inhibition of AXL (unknown origin).

Assay [2] concerns the target Epithelial discoidin domain-containing receptor 1 (Homo sapiens, UniProt Q08345). The assay is described as follows: Inhibition of DDR1 (unknown origin).
In another assay the target is T2, Aurora kinase A (Homo sapiens, UniProt O14965).
T2 sequence (O14965 whole entry): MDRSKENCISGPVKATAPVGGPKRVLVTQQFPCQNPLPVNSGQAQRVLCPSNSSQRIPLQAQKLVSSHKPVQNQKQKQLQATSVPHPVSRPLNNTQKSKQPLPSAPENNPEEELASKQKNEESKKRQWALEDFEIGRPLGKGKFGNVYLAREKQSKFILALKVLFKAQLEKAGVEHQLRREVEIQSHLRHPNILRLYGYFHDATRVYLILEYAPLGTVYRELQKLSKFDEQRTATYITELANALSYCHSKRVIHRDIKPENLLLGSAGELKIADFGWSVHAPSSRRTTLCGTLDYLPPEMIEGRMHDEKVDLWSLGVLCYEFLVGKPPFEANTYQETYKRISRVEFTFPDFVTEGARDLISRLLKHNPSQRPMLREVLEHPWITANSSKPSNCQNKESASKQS
Kind of assay: Inhibition of AURORA-A (unknown origin).

The next assay has as its target Aurora kinase B (Homo sapiens, UniProt Q96GD4). The assay is described as follows: Inhibition of AURORA-B (unknown origin).
Assay [3] addresses T1, Tyrosine-protein kinase receptor UFO. Kind of assay: Inhibition of AXL (unknown origin) by HTRF kinase assay.
For assay [4], the target named is T3, Tyrosine-protein kinase Mer (Homo sapiens) (UniProt Q12866).
T3 sequence (whole entry): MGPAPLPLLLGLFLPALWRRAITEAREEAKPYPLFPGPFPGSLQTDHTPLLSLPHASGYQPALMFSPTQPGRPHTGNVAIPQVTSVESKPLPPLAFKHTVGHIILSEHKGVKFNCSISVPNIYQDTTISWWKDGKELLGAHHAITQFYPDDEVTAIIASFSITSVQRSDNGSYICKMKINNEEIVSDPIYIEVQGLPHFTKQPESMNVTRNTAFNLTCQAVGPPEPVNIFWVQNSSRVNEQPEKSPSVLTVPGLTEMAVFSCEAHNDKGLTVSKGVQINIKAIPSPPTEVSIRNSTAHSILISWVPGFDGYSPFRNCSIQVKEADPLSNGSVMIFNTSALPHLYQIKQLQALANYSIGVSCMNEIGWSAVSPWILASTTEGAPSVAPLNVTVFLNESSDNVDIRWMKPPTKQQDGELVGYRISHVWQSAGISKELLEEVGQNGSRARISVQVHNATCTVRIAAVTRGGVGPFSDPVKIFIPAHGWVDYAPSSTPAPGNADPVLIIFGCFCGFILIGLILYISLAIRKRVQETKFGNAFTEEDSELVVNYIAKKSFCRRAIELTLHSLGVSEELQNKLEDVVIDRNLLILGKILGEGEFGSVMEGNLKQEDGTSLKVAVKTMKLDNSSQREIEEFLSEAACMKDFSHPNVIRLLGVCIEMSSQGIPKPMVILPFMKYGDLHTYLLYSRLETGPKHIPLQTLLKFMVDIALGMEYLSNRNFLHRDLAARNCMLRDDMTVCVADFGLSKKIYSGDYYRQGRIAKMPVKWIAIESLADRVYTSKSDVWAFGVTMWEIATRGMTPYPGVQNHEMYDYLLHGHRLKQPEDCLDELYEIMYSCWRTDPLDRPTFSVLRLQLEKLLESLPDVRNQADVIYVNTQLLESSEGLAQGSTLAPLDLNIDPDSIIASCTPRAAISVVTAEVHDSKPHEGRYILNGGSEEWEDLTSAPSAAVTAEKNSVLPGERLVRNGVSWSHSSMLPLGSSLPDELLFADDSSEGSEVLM
The assay is described as follows: Inhibition of MER (unknown origin) at 100 nM relative to control.

Assay [5] concerns the target Hepatocyte growth factor receptor (Homo sapiens) (UniProt P08581). Kind of assay: Inhibition of c-MET (unknown origin) at 100 nM relative to control.
Assay [6] has as its target T4, Tyrosine-protein kinase receptor TYRO3 (Homo sapiens) (UniProt Q06418).
T4 sequence (whole entry): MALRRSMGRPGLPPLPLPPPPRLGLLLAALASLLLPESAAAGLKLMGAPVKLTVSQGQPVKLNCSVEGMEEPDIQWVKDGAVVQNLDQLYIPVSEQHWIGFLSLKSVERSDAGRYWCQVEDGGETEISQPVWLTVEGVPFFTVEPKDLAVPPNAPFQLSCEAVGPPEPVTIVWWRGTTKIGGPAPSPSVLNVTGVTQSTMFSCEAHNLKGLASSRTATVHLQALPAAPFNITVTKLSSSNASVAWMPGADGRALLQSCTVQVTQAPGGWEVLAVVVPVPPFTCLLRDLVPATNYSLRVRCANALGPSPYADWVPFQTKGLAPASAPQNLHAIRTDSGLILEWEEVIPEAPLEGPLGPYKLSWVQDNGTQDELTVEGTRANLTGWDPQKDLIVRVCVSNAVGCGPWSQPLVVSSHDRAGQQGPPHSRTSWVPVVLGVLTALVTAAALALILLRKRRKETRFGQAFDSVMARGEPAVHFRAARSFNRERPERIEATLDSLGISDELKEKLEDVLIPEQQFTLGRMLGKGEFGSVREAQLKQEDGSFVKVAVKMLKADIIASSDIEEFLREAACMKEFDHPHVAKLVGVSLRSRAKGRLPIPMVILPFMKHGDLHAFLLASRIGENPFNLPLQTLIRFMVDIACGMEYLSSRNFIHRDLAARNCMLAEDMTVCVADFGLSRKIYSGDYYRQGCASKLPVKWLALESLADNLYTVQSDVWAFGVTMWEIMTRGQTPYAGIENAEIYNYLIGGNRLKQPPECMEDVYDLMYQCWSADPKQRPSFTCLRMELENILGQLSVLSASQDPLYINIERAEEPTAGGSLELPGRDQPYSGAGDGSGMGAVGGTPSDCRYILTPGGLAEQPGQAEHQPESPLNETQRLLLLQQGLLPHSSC
The assay is described as follows: Inhibition of TYRO3 (unknown origin) at 100 nM relative to control.

Chain of Epithelial discoidin domain-containing receptor 1 (Q08345 whole entry, the tested form may be a part): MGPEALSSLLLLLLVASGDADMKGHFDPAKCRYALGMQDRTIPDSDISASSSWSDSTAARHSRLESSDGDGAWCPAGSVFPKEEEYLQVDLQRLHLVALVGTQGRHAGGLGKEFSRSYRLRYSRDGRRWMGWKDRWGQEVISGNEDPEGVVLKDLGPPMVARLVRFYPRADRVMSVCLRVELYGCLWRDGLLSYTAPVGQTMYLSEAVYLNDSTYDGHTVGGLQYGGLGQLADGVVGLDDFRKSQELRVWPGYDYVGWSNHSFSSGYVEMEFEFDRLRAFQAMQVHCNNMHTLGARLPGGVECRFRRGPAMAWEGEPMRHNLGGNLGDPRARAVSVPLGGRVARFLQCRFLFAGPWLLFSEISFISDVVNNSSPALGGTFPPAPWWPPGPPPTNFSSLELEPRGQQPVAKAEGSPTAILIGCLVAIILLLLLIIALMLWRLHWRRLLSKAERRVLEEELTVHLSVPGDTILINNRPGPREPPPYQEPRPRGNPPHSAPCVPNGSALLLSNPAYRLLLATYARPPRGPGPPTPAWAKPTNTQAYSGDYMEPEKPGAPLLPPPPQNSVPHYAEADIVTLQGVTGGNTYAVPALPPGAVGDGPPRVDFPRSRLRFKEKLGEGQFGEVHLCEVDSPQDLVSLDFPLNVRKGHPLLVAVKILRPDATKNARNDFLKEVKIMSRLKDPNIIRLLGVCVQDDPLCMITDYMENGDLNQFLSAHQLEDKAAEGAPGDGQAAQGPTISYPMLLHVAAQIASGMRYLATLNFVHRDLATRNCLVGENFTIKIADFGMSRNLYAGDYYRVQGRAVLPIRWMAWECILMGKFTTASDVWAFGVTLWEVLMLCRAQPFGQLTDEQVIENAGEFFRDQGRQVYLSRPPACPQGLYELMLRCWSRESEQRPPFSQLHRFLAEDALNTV
Chain of Aurora kinase B (Q96GD4 whole entry): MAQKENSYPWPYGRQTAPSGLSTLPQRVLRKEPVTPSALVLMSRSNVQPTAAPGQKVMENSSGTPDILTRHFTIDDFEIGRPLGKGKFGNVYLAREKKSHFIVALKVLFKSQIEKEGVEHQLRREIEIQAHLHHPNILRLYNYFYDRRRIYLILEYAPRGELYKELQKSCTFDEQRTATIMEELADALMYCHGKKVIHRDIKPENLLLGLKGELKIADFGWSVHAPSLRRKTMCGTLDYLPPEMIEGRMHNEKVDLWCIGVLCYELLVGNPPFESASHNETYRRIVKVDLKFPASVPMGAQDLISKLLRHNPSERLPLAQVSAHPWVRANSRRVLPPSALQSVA
Chain of Hepatocyte growth factor receptor (Homo sapiens) (P08581 whole entry): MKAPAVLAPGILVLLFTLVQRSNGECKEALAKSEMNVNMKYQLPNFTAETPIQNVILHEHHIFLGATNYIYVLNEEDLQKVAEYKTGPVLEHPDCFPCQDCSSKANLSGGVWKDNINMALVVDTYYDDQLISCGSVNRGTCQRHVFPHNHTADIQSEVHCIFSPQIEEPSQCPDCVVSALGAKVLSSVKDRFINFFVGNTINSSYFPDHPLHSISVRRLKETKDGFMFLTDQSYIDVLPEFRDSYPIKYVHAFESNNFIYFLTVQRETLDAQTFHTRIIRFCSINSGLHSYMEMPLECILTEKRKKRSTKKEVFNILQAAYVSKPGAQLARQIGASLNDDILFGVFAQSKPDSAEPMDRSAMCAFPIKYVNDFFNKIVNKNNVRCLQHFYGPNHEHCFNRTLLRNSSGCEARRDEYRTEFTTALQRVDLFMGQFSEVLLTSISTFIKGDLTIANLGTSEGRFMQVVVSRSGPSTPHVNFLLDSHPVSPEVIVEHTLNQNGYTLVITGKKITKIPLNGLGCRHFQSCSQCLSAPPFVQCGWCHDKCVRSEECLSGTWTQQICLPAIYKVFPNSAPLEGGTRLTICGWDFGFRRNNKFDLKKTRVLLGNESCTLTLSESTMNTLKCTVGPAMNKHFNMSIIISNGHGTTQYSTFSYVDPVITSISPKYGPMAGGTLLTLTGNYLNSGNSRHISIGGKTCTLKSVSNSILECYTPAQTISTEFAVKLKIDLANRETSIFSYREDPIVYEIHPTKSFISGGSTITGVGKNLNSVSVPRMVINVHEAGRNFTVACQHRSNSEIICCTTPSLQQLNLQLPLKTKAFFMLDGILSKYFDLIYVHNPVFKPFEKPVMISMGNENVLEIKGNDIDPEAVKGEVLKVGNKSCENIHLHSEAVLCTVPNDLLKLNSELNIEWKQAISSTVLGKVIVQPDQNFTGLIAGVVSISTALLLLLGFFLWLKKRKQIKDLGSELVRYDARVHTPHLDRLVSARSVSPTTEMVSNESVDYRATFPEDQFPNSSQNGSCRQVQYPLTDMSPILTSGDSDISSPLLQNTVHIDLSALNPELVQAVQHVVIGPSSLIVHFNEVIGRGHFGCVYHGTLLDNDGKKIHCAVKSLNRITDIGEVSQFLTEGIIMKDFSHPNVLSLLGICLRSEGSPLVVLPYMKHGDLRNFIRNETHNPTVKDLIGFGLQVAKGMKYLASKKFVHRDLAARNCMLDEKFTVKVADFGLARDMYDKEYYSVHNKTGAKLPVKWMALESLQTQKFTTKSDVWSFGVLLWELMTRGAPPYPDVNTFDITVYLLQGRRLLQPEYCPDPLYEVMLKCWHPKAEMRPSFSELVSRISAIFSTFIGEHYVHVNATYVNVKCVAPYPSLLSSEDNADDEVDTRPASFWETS

`COc1cc2nccc(Oc3ccc(NC(=O)c4c5n(n(-c6cc(F)ccc6F)c4=O)CCCC5)cc3F)c2cc1OC`: in assay [1], half-maximal inhibition (IC50) was put at 1.2 nM.

As to `CCc1ccc2c(c1)c(=O)c(C(=O)Nc1ccc(Oc3ccnc4cc(OC)c(OC)cc34)c(F)c1)c(C)n2C`, the half-inhibitory concentration (IC50) was 4 nM in assay [1], 22.2 nM in assay [2], 192 nM against Aurora kinase A and 114 nM on Aurora kinase B.

In assay [1], `COc1cc2ncnc(Oc3ccc(NC(=O)c4c5n(n(-c6cccc(F)c6)c4=O)CCCC5)cc3F)c2cc1OC` gave a concentration for half-maximal inhibition (IC50) of 5.9 nM.

As for `COc1cc2nccc(Oc3ccc(NC(=O)c4cc5c(n(-c6ccccc6)c4=O)CCCC5=O)nc3)c2cc1OC` [TAMNORZATINIB], the half-inhibitory concentration (IC50) in assay [3] turned out to be 0.7 nM.

In assay [1], `O=C(Nc1ccc(Oc2ccnc3c2CCN3)c(F)c1)c1c[nH]cc(-c2ccc(F)cc2)c1=O` yielded an IC50 of 9 nM.

With `Nn1cc(-c2n[nH]c3cc(Cl)c(NC4CCNC4)cc23)cn1` (centres undefined), half-maximal inhibition in assay [1] (IC50) was put at 19 nM.

On to `COc1cc2nccc(Oc3ccc(NC(=O)c4c5n(n(-c6ccc(F)cc6)c4=O)CCCC5)cc3F)c2cc1OC`, for which, in assay [1], the midpoint of inhibition, the IC50, lay at 3.5 nM. Also, the inhibition in assay [4] worked out at 100%; in assay [5], 98%; in assay [6], 71%.

For the molecule `CN1CCc2ccc(Nc3ncc(Cl)c(Nc4ccccc4S(=O)(=O)N(C)C)n3)cc2C1`, the 50% inhibitory concentration (IC50) in assay [1] came to 2600 nM.
